Experimental data taken from patent US8937055B2, “Heterocyclic ring compound having muscle cell or adipocyte differentiation regulating action” (Takeda Pharmaceutical Company Limited, priority 2010, dated 2015).

Columns and labels:
[1] = tested on: Mouse-derived myoblast line C2C12 cell; experiment: Cell differentiation promoting activity in myoblast (creatine kinase activity); type: cell-based; conditions: 48 h, 1 μM compound, 2 days in differentiation medium, CK activity without compound = 100%, read-out: creatinine kinase activating action (%)
Description: • (1) Mouse-derived myoblast line C2C12 cell (Dainippon Pharmaceutical Co., Ltd.) was subcultured in a high glucose Eagle's modified Dulbecco's medium (GIBCO) containing 10% calf fetal bovine serum (GIBCO), 100 unit/mL penicillin and 100 μg/mL streptomycin (hereinafter to be referred to as a growth medium), plated at 5000 cells/cm^2 and cultured at 37° C., under 5% CO2. • (2) When the cells reached subconfluence, the medium was exchanged with a high glucose Eagle's modified Dulbecco's medium (GIBCO) containing 2% horse serum (GIBCO) and penicillin, streptomycin and a test compound (hereinafter to be referred to as a differentiation medium), and the cells were cultured for 2 days. To the control group was added DMSO solution instead of the test compound. • (3) The cells were washed with PBS, 0.5% NP-40 solution was added thereto, and the cells were lysed by freeze-thawing. The cell extract was centrifuged, and the creatine kinase activity in the supernatant was measured as an index of muscle differentiation. The creatine kinase activity was measured using CPKII Test Wako (Wako Pure Chemical Industries, Ltd.) according to the manual of the kit. The tests using the compounds of Example 7 to Example 14 were corrected based on the total protein amount measured using CA Protein Assay Kit (Thermo Scientific).
The numerical values in Table 3 show CK activity of the compound addition group with the CK activity without addition of the compound as 100%, and 1 μM of the compound was added for the measurement.

[2] = Anti-diabetes action in KKA^y mouse (glycohemoglobin); type: in vivo, female KKA^y mouse; conditions: 2 weeks, variation from value before administration, n=6
Description: Female KKA^y mice (12-13 week-old, CLEA Japan, Inc.) were bred allowing free ingestion of both feed and water. The mice were acclimation bred with powder CE-2 (CLEA Japan, Inc.) from 2 weeks before administration of the test compound. The body weight, blood glycohemoglobin % (GHb %) value, plasma glucose, triglyceride and total cholesterol concentration were measured, and the mice were divided into 3 groups or 5 groups (6 mice/group) such that those measurement values are uniform at the start of the administration. The compound was administered by mixing (0.01-0.03%) in the feed for 2 weeks. GHb % was measured on the last day. GHb % was measured using Tosoh Corporation automatic glycohemoglobin analyzer (HLC-723GHbV Alc2.2). The numerical values in Table 11 show the variation from the value before administration to the measured value after administration in mean±standard deviation at n=6 (n is the number of mice).

3T3-L1 cells = experiment: Adipocyte differentiation suppressive action (fat droplet quantification); type: cell-based; conditions: for lipid accumulation amount in the cell in fat differentiation, result in words: 1 μM; for lipid accumulation (%): 1 μM compound, 6 days, without compound = 100%, n=2
Description: 3T3-L1 cells (ATCC) were cultured in a growth medium until confluence. 1 μM dexamethasone, 0.5 mM 3-isobutyl-1-methylxanthine and 5 μg/mL insulin were added to the medium, and the cells were cultured for 3 days. The medium was exchanged with a growth medium containing 4 μg/mL insulin and the cells were cultured for 3 more days. When the compound (1 μM) was to be added, it was added after the cells reached confluence, and the cells were cultured for 6 days. After completion of the culture period, the fat droplet formed was quantified using Adipogenesis Assay Kit (CHEMICON). The numerical values in Table 12 show the relative value when without addition of the compound as 100% (n is the number of samples).

NF-kB = NF-kB activation suppressive action in muscle cell (luciferase reporter, TNF-α induced); type: cell-based, mouse; conditions: TNF-α 10 ng/mL, activity without TNF-α = 1, n=8
Description: • (1) C2C12 cells introduced with NF-kB reporter plasmid (C2C12/NF-kB-luc, Panomics) was plated at 20000 cells/cm^2, 100 μg/ml hygromycin was added thereto, and the cells were cultured in a growth medium in the same manner as in Example 1. • (2) The cells were cultured in a differentiation medium containing the compound of Example 1, Example 8, Example 9, Example 10 or Example 11 for 1 hr, TNF-α was added thereto such that the concentration is 10 ng/mL, and the cells were cultured for 4 hr. • (3) The luciferase activity in the medium was measured using a Stedy-Glo luciferase assay system (Promega). The NF-kB activity was evaluated by measuring the luciferase activity.
The data in Table 6 to Table 10 show mean±standard deviation at n=8 (n is the number of samples).

[3] = Anti-obesity action in high-fat diet-loaded mouse; type: in vivo, male C57BL/6J mouse; conditions: for plasma total cholesterol concentration (mg/dL) before administration: before administration (baseline); for plasma total cholesterol concentration (mg/dL) before administration / plasma total cholesterol concentration (mg/dL) after administration for 4 weeks / body weight: mean ± SD, n=6; for body weight: once a day for 4 weeks, administration completion day
Description: As male C57BL/6J mouse (CLEA Japan, Inc.), mice fed with a high-fat diet (45 kcal % fat, D12451, research diet) for 40 weeks from 5 weeks old were used. After acclimation bred for 3 weeks, the body weight, ingestion amount, body fat percentage, plasma triglyceride, insulin and leptin concentration were measured, and the mice were divided into 4 groups at 6 per group without difference between them. Plasma total cholesterol concentration was measured using Hitachi automatic analyzer 7180. The compound of Example 1 was suspended in aqueous methylcellulose solution, and the suspension was orally administered repeatedly to 3 groups of the […] divided into 4 groups at 3 mg/kg, 10 mg/kg or 30 mg/kg once a day for 4 weeks. A 0.5% aqueous methylcellulose solution was orally administered similarly to the remaining one group, and the group was used as a control group. On the administration completion day, the body weight and plasma total cholesterol concentration were measured. The numerical values in Table 5 show mean±standard deviation at n=6 (n is the number of mice).

[4] = tested on: differentiated C2C12 muscle cell; experiment: Sugar metabolism promoting activity in muscle cell (lactic acid production); type: cell-based, mouse; conditions: C2C12 myotube, 1 μM compound, 2 days; lactic acid concentration without compound = 100%
Description: • (1) In the same manner as in Experimental Example 1, C2C12 cell was cultured in a growth medium. When the cells reached subconfluence, the medium was exchanged with a differentiation medium, and the cells were cultured for 3 to 4 days while exchanging the medium every 2 or 3 days until the cells differentiated to form a myotube. • (2) After confirmation of myotube formation under a microscope, the compound (1 μM) was added to a differentiation medium and cultured for 2 days. The cells were washed with Krebs-Ringer HEPES phosphate buffer (10 mM HEPES, pH 7.4, 131 mM NaCl, 4.7 mM KCl, 2.5 mM CaCl2-2H2O, 1.2 mM MgSO4-7H2O, 1.2 mM KH2PO4), the medium was exchanged with Krebs-Ringer HEPES phosphate buffer containing 5 mM glucose, 0.2% fatty acid-free bovine serum albumin, and the cells were cultured at 37° C. for 4 hr. • (3) The lactic acid concentration of the culture supernatant was measured using Detarminer LA kit (Kyowa Medex Co., Ltd.).
The numerical values in Table 4 show the lactic acid concentration of the compound addition group with the lactic acid concentration without addition of the compound as 100%.

O=C(/C=C/c1cnccc1-c1ccc(F)cc1)Nc1ccc(CCc2nnco2)cc1 [Example 1, (2E)-3-[4-(4-fluorophenyl)pyridin-3-yl]-N-{4-[2-(1,3,4-oxadiazol-2-yl)ethyl]phenyl}prop-2-enamide]
activity at 1 µM [1]: 196% | GHb change (%) ([2]; 0.01% mixed with feed): −0.4% | lipid accumulation amount in the cell in fat differentiation, result in words (3T3-L1 cells): decrease the lipid accumulation amount in the cell | lipid accumulation (%) (3T3-L1 cells): 53% | NF-κB activity (multiple) (NF-kB; 0.001 μM compound): 13.2 multiple | NF-κB activity (multiple) (NF-kB; 0.003 μM compound): 13.4 multiple | NF-κB activity (multiple) (NF-kB; 0.01 μM compound): 13.7 multiple | NF-κB activity (multiple) (NF-kB; 0.03 μM compound): 12.5 multiple | NF-κB activity (multiple) (NF-kB; 0.1 μM compound): 10.7 multiple | NF-κB activity (multiple) (NF-kB; 0.3 μM compound): 9.4 multiple | NF-κB activity (multiple) (NF-kB; 1 μM compound): 9.3 multiple | NF-κB activity (multiple) (NF-kB; 3 μM compound): 8.3 multiple | NF-κB activity (multiple) (NF-kB; 10 μM compound): 9.0 multiple | plasma total cholesterol concentration (mg/dL) before administration ([3]; 3 mg/kg/day group): 265.5 ± 29.7 mg/dL | plasma total cholesterol concentration (mg/dL) after administration for 4 weeks ([3]; 3 mg/kg/day oral): 225.9 ± 27.7 mg/dL | body weight ([3]; 3 mg/kg/day oral): 52.5 ± 2.5 g | plasma total cholesterol concentration (mg/dL) before administration ([3]; 10 mg/kg/day group): 270.9 ± 24.5 mg/dL | plasma total cholesterol concentration (mg/dL) after administration for 4 weeks ([3]; 10 mg/kg/day oral): 192.8 ± 27.6 mg/dL | body weight ([3]; 10 mg/kg/day oral): 49.0 ± 3.2 g | plasma total cholesterol concentration (mg/dL) before administration ([3]; 30 mg/kg/day group): 275.9 ± 18.2 mg/dL | plasma total cholesterol concentration (mg/dL) after administration for 4 weeks ([3]; 30 mg/kg/day oral): 161.7 ± 16.9 mg/dL | body weight ([3]; 30 mg/kg/day oral): 44.9 ± 3.1 g | body weight decreasing action ([3]; administration at 10 mg/kg or above, result in words): showed a body weight decreasing action | plasma total cholesterol concentration, result in words ([3]; high-fat diet-loaded mouse, 4 weeks oral): decreased total cholesterol concentration | lactic acid production promoting action (%) [4]: 226.1%

COc1ccc(-c2ccncc2/C=C/C(=O)Nc2ccc(CCc3nnco3)cc2)cc1 [Example 2, (2E)-3-[4-(4-methoxyphenyl)pyridin-3-yl]-N-{4-[2-(1,3,4-oxadiazol-2-yl)ethyl]phenyl}prop-2-enamide]
activity at 1 µM [1]: 211% | GHb change (%) ([2]; 0.02% mixed with feed): −1% | lipid accumulation amount in the cell in fat differentiation, result in words (3T3-L1 cells): decrease the lipid accumulation amount in the cell | lipid accumulation (%) (3T3-L1 cells): 45% | lactic acid production promoting action (%) [4]: 168.3%
